Paper PMC6982798, “Evaluation of Isoflavones as Bone Resorption Inhibitors upon Interactions with Receptor Activator of Nuclear Factor-κB Ligand (RANKL)” (Molecules, 2020)

Each compound was assayed against T1, sRANKL recombinant (RANKL) (Homo sapiens, UniProt O14788) (assay: isothermal titration calorimetry (ITC), single binding mode fit). Conditions: read-out: KA × 10^3 (L/mol) (converted).
T1 construct: gene TNFSF11; human is named only for the docking model (3URF), whose residue numbers (K181, Y235, Q237, Y241) fit human RANKL
T1 sequence (O14788 140-317 limits assumed): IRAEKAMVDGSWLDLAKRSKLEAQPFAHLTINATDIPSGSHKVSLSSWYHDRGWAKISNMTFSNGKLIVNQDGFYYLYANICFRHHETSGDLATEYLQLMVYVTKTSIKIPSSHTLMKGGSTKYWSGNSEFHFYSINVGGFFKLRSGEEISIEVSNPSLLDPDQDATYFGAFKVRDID
Source text: isothermal titration calorimetry (ITC), single binding mode fit on sRANKL recombinant (RANKL)

Structure (SMILES)	Kd [µM]
COc1ccc(-c2coc3cc(O)cc(O)c3c2=O)cc1 [Biochanin A]	833
O=c1oc2cc(O)ccc2c2oc3cc(O)ccc3c12 [Coumestrol]	1430
O=c1c(-c2ccc(O)cc2)coc2cc(O)ccc12 [Daidzein]	62.7
COc1ccc(-c2coc3cc(O)ccc3c2=O)cc1 [Formononetin]	318
O=c1c(-c2ccc(O)cc2)coc2cc(O)cc(O)c12 [Genistein]	317
